# Tests used:
# JAK2 = target: T1, JAK2 (Homo sapiens, UniProt O60674); experiment: Competition binding assay, JAK2; details: read-out: Binding Assay: JAK2 (active_KD)
# T1 construct: made in house
# Text: (§1) Competition Binding Assay to Determine Binding Constants (Kd) of the Compounds Against JAK Kinases
# (§2) Competition binding assays used herein were developed, validated and performed as described in Fabian et al., Nature Biotechnology 2005, 23,329-336. Kinases were produced as fusions to T7 phage (See, Fabian et al. or WO04/015142) or alternatively, the kinases were expressed in HEK-293 cells and subsequently tagged with DNA for PCR detection (See, WO08/005310). For the binding assays, streptavidin-coated magnetic beads were treated with biotinylated affinity ligands for 30 min at rt to generate affinity resins. The liganded beads were blocked with excess biotin and washed with blocking buffer (SeaBlock (Pierce), 1% BSA, 0.05% Tween 20, 1 mM DTT) to remove unbound ligand and to reduce non-specific binding. […] Test compounds were prepared as 100× stocks in DMSO and rapidly diluted into the aqueous environment. DMSO was added to control assays lacking a test compound. Primary screen interactions were performed in polypropylene 384-well plates in a final volume of 34 μL, while Kd determinations were performed in polystyrene 96-well plates in a final volume of 135 μL. […] The kinase concentration in the eluates was measured by quantitative PCR. Each kinase was tested individually against each compound. Kds were determined using eleven serial threefold dilutions. A selectivity score, which is a quantitative measure of selectivity of a compound against a panel of enzymes, may be calculated for a compound by dividing the number of enzymes for which a compound meets a set criteria, (for example, a binding constant of 100 nM or less), by the total number of enzymes tested.
# [1] = tested on: csTF-1 cells (GM-CSFR/JAK2/STAT5 pathway); experiment: csTF-1 cell-based reporter assay; parameters: species or system human; details: Homo sapiens; GM-CSF at 2 ng/mL, 4 hours; read-out: Cell Assay: CS0017: CS TF-1 reporter assay: IC50
# Description: csTF-1 Cell-based Reporter Assay
# csTF-1 cells are derived from the human erythroleukemia cell line that is growth dependent on GM-CSF and has an intact GM-CSFR/JAK2/STAT5 pathway. The cell line contains stably integrated beta-lactamase reporter gene under the control of the […] (irf 1) response element recognized by the activated transcription factor STATS. csTF-1 cells (Invitrogen K1219) were washed with assay media (97% OPTIMEM/0.5% dialyzed FBS/0.1 mM NEAA/1 mM Na pyr/P/S) and seeded in the same media at 5×10^5 cell/mL in T150 flask. After 16 hour incubation, cells were seeded at 2×10^5 cell/well in 50 μl volume, into Costar, clear bottom, 96-well assay plates. Serial dilutions of compounds were added to the plates with final DMSO concentration at 0.5% and GM-CSF at 2 ng/mL and the plates were then incubated at […] and 5% CO2 for 4 hours. The plates were brought to room temperature before adding Substrate Mixture according to manufacturer's protocol (Invitrogen, Catalog #K1085). The assay plates containing the substrate mixture were incubated in the dark at room temperature for 2 hours. Blue and green fluorescence was measured with excitation at 409 nm and emission at 460 nm (for blue) and excitation at 409 nm and emission at 530 nm (for green) using Spectra Max Gemini EM.
# JAK3 = target: T2, JAK3 (Homo sapiens, UniProt P52333); experiment: Competition binding assay, JAK3; details: read-out: Binding Assay: JAK3 (active_KD, ENZ)
# T2 construct: made in house
# T2 sequence (P52333 822-1111 limits assumed): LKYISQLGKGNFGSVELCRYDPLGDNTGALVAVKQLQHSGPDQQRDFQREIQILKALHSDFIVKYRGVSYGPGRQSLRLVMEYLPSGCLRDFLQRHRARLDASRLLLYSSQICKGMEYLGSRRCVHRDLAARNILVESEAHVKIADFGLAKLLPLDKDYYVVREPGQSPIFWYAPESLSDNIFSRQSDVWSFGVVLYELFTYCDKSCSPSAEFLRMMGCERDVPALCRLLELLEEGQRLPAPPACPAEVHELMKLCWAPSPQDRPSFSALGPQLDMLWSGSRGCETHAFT
# Text: as §1, §2
# T1 sequence (O60674 849-1124 limits assumed): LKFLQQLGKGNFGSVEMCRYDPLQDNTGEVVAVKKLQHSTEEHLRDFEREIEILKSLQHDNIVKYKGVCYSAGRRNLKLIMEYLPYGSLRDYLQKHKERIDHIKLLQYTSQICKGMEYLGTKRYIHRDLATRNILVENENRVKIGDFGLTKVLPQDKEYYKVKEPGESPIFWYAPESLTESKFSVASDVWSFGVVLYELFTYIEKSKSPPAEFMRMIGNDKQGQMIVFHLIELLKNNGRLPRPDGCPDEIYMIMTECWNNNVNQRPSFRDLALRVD
Compound,Kd (JAK2),IC50 [1],Kd (JAK3)
"OC(c1ccc(F)cc1)c1nc(Nc2cc[nH]n2)c2ccc(Br)cc2n1 (racemic) [Example 58, (R,S)-(4-(1H-pyrazol-3-ylamino)-7-bromoquinazolin-2-yl)(4-fluorophenyl)methanol]",1 to 10 nM,100 to 500 nM,> 100 nM
"COc1ccccc1C(O)c1nc(Nc2cc(C)[nH]n2)c2ccccc2n1 (racemic) [Example 63, (R,S)-(2-methoxyphenyl)(4-(5-methyl-1H-pyrazol-3-ylamino)quinazolin-2-yl)methanol]",1 to 10 nM,100 to 500 nM,10 to 100 nM
"Cc1ccc2c(Nc3cc[nH]n3)nc(C(F)(F)c3ccc(F)cc3)nc2c1 [Example 27, 2-(difluoro(4-fluorophenyl)methyl)-7-methyl-N-(1H-pyrazol-3-yl)quinazolin-4-amine]",≤ 1 nM,≤ 100 nM,10 to 100 nM
"Cc1cc(Nc2nc(C3(c4ccc(F)cc4)OCCO3)nc3ccccc23)n[nH]1 [Example 59, 2-(2-(4-fluorophenyl)-1,3-dioxolan-2-yl)-N-(5-methyl-1H-pyrazol-3-yl)quinazolin-4-amine]",≤ 1 nM,≤ 100 nM,10 to 100 nM
"Cc1cc(Nc2nc(C(NC3CC3)c3ccc(F)cc3)nc3ccccc23)n[nH]1 (stereo not shown) [Example 69, 2-((cyclopropylamino)(4-fluorophenyl)methyl)-N-(5-methyl-1H-pyrazol-3-yl)quinazolin-4-amine]",≤ 1 nM,100 to 500 nM,10 to 100 nM
"COc1ccccc1C(=O)c1nc(Nc2cc(C)[nH]n2)c2ccccc2n1 [Example 62, (2-methoxyphenyl)(4-(5-methyl-1H-pyrazol-3-ylamino)quinazolin-2-yl)methanone]",1 to 10 nM,100 to 500 nM,> 100 nM
"O=C(c1ccc(F)cc1)c1nc(Nc2cc[nH]n2)c2ccc(I)cc2n1 [Example 22, (4-(1H-pyrazol-3-ylamino)-7-iodoquinazolin-2-yl)(4-fluorophenyl)methanone]",1 to 10 nM,100 to 500 nM,> 100 nM
"Cc1cc(Nc2nc(C(O)c3cccc(F)c3)nc3ccccc23)n[nH]1 (stereo not shown) [Example 64, (3-fluorophenyl)(4-(5-methyl-1H-pyrazol-3-ylamino)quinazolin-2-yl)methanol]",1 to 10 nM,100 to 500 nM,10 to 100 nM
"Cc1cc(Nc2nc(C(O)c3ccc(F)c(Cl)c3)nc3ccccc23)n[nH]1 (stereo not shown) [Example 67, (3-chloro-4-fluorophenyl)(4-(5-methyl-1H-pyrazol-3-ylamino)quinazolin-2-yl)methanol]",≤ 1 nM,100 to 500 nM,≤ 10 nM
"Cc1cc(Nc2nc(C(O)c3ccc(F)cc3)nc3ccc(F)cc23)n[nH]1 (racemic) [Example 54, (R,S)-(6-fluoro-4-(5-methyl-1H-pyrazol-3-ylamino)quinazolin-2-yl)(4-fluorophenyl)methanol]",1 to 10 nM,100 to 500 nM,> 100 nM
"Cc1cc(Nc2nc(C(NC=O)c3ccc(F)cc3)nc3ccccc23)n[nH]1 (stereo not shown) [Example 65, N-((4-fluorophenyl)(4-(5-methyl-1H-pyrazol-3-ylamino)quinazolin-2-yl)methyl)formamide]",≤ 1 nM,100 to 500 nM,10 to 100 nM
"Cc1cc(Nc2nc(C(=O)c3ccc(F)cc3)nc3cc(Br)ccc23)n[nH]1 [Example 56, (7-bromo-4-(5-methyl-1H-pyrazol-3-ylamino)quinazolin-2-yl)(4-fluorophenyl)methanone]",1 to 10 nM,100 to 500 nM,10 to 100 nM
"Cc1cc(Nc2nc(C(F)(F)c3ccc(F)cc3)nc3cc(CO)ccc23)n[nH]1 [Example 49, (2-(difluoro(4-fluorophenyl)methyl)-4-(5-methyl-1H-pyrazol-3-ylamino)quinazolin-7-yl)methanol]",≤ 1 nM,≤ 100 nM,≤ 10 nM
"Cc1cc(Nc2nc(C(CC#N)c3ccc(F)cc3)nc3ccccc23)n[nH]1 (stereo not shown) [Example 68, 3-(4-fluorophenyl)-3-(4-(5-methyl-1H-pyrazol-3-ylamino)quinazolin-2-yl)propanenitrile]",1 to 10 nM,≤ 100 nM,10 to 100 nM
"Cc1cc(Nc2nc(C(O)c3ccc(F)c(F)c3)nc3ccccc23)n[nH]1 (racemic) [Example 66, (R,S)-(3,4-difluorophenyl)(4-(5-methyl-1H-pyrazol-3-ylamino)quinazolin-2-yl)methanol]",≤ 1 nM,100 to 500 nM,≤ 10 nM
"Cc1cc(Nc2nc(C(O)c3ccc(F)cc3)nc3c(F)cccc23)n[nH]1 (racemic) [Example 61, (R,S)-(8-fluoro-4-(5-methyl-1H-pyrazol-3-ylamino)quinazolin-2-yl)(4-fluorophenyl)methanol]",≤ 1 nM,100 to 500 nM,10 to 100 nM
"Cc1cc(Nc2nc(C(O)c3ccc(F)cc3)nc3cc(Br)ccc23)n[nH]1 (stereo not shown) [Example 57, (7-bromo-4-(5-methyl-1H-pyrazol-3-ylamino)quinazolin-2-yl)(4-fluorophenyl)methanol]",1 to 10 nM,100 to 500 nM,

# The remaining lines, values ahead:
Kd (JAK2),IC50 [1],Kd (JAK3),Compound
≤ 1 nM,,,"CCc1cc(Nc2nc(C(O)c3ccc(F)cc3)nc3ccccc23)n[nH]1 (racemic) [Example 74, (R,S)-(4-(5-ethyl-1H-pyrazol-3-ylamino)quinazolin-2-yl)(4-fluorophenyl)methanol]"
≤ 1 nM,100 to 500 nM,10 to 100 nM,"Cc1cc(Nc2nc(C(CS(C)(=O)=O)c3ccc(F)cc3)nc3ccccc23)n[nH]1 (stereo not shown) [Example 70, 2-(1-(4-fluorophenyl)-2-(methylsulfonyl)ethyl)-N-(5-methyl-1H-pyrazol-3-yl)quinazolin-4-amine]"
,≤ 100 nM,,"[2H]C(O)(c1ccc(F)cc1)c1nc(Nc2cc(C)[nH]n2)c2ccccc2n1 (racemic) [Example 72, (R,S) (4-fluorophenyl)(4-(5-methyl-1H-pyrazol-3-ylamino)quinazolin-2-yl)methanol-1-d]"
> 10 nM,,,"COc1cc(C(=O)c2nc(Nc3cc(C)[nH]n3)c3ccccc3n2)ccc1F [Example 76, (4-fluoro-3-methoxyphenyl)(4-(5-methyl-1H-pyrazol-3-ylamino)quinazolin-2-yl)methanone]"
≤ 1 nM,,,"Cc1cc(Nc2nc(C(O)c3ccc(F)c(O)c3)nc3ccccc23)n[nH]1 (racemic) [Example 78, (R,S)-(2-fluoro-5-(hydroxy(4-(5-methyl-1H-pyrazol-3-ylamino)quinazolin-2-yl)methyl)phenol acetate]"
1 to 10 nM,> 500 nM,10 to 100 nM,"Cc1cc(Nc2nc(C(CCN)c3ccc(F)cc3)nc3ccccc23)n[nH]1 (stereo not shown) [Example 71, 2-(3-amino-1-(4-fluorophenyl)propyl)-N-(5-methyl-1H-pyrazol-3-yl)quinazolin-4-amine]"
> 10 nM,,,"Cc1cc(Nc2nc(C(=O)c3ccc(F)c(O)c3)nc3ccccc23)n[nH]1 [Example 77, (4-fluoro-3-hydroxyphenyl)(4-(5-methyl-1H-pyrazol-3-ylamino)quinazolin-2-yl)methanone]"
≤ 1 nM,100 to 500 nM,10 to 100 nM,"COc1cc(Nc2nc(C(=O)c3ccc(F)cc3)nc3ccccc23)n[nH]1 [Example 73, (4-fluorophenyl)(4-(5-methoxy-1H-pyrazol-3-ylamino)quinazolin-2-yl)methanone]"

# — patent US8349851B2, “JAK kinase modulating compounds and methods of use thereof” (Ambit Biosciences Corp., priority 2009, dated 2013)
